Measured values: patent US6087119A, “Method for determining the catalytic activity of factor IXa” (Roche Diagnostics GmbH, priority 1996, dated 2000)
Values joined by “and” are separate entries in the source; they are usually repeats but may differ in a detail not shown here. Identical values can stand only once. Like-named read-outs stand apart in the source and are kept apart here.

What was measured:
native FIXa (human) = native FIXa (human) (Homo sapiens, UniProt P00740); conditions: pH 7.4; for V/V0: MeSO2-D-HHT-Gly-Arg-pNA 1.02 mmol/l, 0.14 μmol/l native FIXa
Experimental: The FIXa test was carried out with recombinantly produced native human FIXa as a sample and the peptide substrate MeSO2 -D-HHT-Gly-Arg-pNA (Pefachrom tPA, Pentapharm Ltd., Basel, Switzerland) or other chromogenic/fluorogenic substrates of the R-D-Xxx-Gly-Arg-pNA type (EP-B 0 034 122) in Tris-HCl buffer and the substances to be tested (alcohol, solvents and inhibitors). The reaction was started by adding FIXa.
The test mixture was incubated at room temperature (25° C.) in a microtitre plate and the change in absorbance (ΔA/min) was measured at 405 nm using an ELISA reader. The activity and the kinetic constants were determined from the linear initial slope according to the Michaelis-Menten equation.
(§1) 1.02 mmol/l MeSO2 -D-HHT-Gly-Arg-pNA
0.14 μmol/l native FIXa (human)
(§2) 0-50% ethanol or ethylene glycol
FIXa Test Mixture (Concentration in the Test)

rFIXa (human) [1] = target: T1, rFIXa (human) (Homo sapiens, UniProt P00740); conditions: fluorogenic MeSO2-D-CHA-Gly-Arg-AMC 0.51 mmol/l, 0.08 μmol/l rFIXa, pH 7.4
Description: The stimulation of human rFIXa by ethanol and ethylene glycol was examined using the peptide substrates MeSO2 -D-HHT-Gly-Arg-pNA (Pefachrom tPA, Pentapharm Ltd., Basel, Switzerland), MOC-D-Nle-Gly-Arg-pNA (Chromozym X, Boehringer Mannheim GmbH, Mannheim, Germany, Cat.No. 789763), MeSO2 -D-CHG-Gly-Arg-pNA (Pentapharm Ltd., Basel, Switzerland), MeSO2 -D-CHA-Gly-Arg-pNA (Pentapharm Ltd., Basel, Switzerland) and MeSO2 -D-CHA-Gly-Arg-AMC (Pentapharm Ltd., Basel, Switzerland).
Test Mixture Fluorogenic (Concentration in the Test)
0.51 mmol/l MeSO2 -D-CHA-Gly-Arg-AMC
0.08 μmol/l rFIXa (human)
Target sequence in this assay (P00740 227-461): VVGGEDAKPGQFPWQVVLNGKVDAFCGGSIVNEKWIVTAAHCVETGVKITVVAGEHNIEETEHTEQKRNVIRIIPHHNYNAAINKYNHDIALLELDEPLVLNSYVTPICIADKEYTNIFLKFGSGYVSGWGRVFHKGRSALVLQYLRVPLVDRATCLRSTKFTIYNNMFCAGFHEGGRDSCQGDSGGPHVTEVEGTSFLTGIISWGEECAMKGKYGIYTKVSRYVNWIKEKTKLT
Target sequence in this assay (P00740 131-226): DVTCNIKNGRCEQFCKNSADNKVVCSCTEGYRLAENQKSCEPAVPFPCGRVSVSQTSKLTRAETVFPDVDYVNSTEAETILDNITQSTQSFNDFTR

[2] = target: plasma kallikrein (human) (Homo sapiens, UniProt P03952); conditions: 10-20% ethanol
Description: Plasma Kallikrein Test Mixture (Concentration in the Test)
(§3) 42 mmol/l Tris-HCl, pH 7.4
as §1
0.0176 U/ml plasma kallikrein (human)
as §2

FXIIa (human) = FXIIa (human) (Homo sapiens, UniProt P00748); conditions: FXIIa 0.0045 U/ml, MeSO2-D-HHT-Gly-Arg-pNA 1.02 mmol/l, pH 7.4
Description: FXIIa Test Mixture (Concentration in the Test)
as §3, §1
0.0045 U/ml FXIIa (human)
as §2

FXIa (human) = FXIa (human) (Homo sapiens, UniProt P03951); conditions: FXIa 0.0012 μmol/l, MeSO2-D-HHT-Gly-Arg-pNA 1.02 mmol/l, pH 7.4
Description: FXIa Test Mixture (Concentration in the Test)
as §3, §1
0.0012 μmol/l FXIa (human)
as §2

FXa (bovine) = FXa (bovine) (Bos taurus, UniProt P00743); conditions: FXa 0.088 μmol/l, MeSO2-D-HHT-Gly-Arg-pNA 1.02 mmol/l, pH 7.4
Description: FXa Test Mixture (concentration in the Test)
as §3, §1
0.088 μmol/l FXa (bovine)
as §2

thrombin (bovine) = thrombin (bovine) (Bos taurus, UniProt P00735); conditions: thrombin 0.045 μmol/l, MeSO2-D-HHT-Gly-Arg-pNA 1.02 mmol/l, pH 7.4
Description: Thrombin Test Mixture (Concentration in the Test)
as §3, §1
0.045 μmol/l thrombin (bovine)
as §2

rFIXa (human) [3] = target: T1, rFIXa (human); experiment: Influence of alcohols and organic solvents on the activity of rFIXa, chromogenic peptide substrates; assay type: biochemical; design: coding for the FIX protease domain from amino acid position 181 to 415; Met (ATG start codon) (N); made in house; conditions: for V/V0: pH 7.4
Experimental: The reaction was started by adding FIXa.
MeSO2 -D-HHT-Gly-Arg-pNA→MeSO2 -D-HHT-Gly-Arg+pNA measurement signal: pNA
0.48 μmol/l rFIXa (human)
0-50% (alcohol or organic solvent)
The ratio V/V0 was calculated to illustrate the stimulation of the catalytic activity of rFIXa.
V0, reaction rate without additives
V, reaction rate in the presence of additives
Test Mixture Chromogenic (Concentration in the Test)
Target sequence in this assay (P00740 227-461 limits assumed): as the sequence (P00740 227-461) above
Target sequence in this assay (P00740 131-226 partner limits assumed): as the sequence (P00740 131-226) above

Chain of FXIIa (human) (P00748 373-615 limits assumed, other chains not shown): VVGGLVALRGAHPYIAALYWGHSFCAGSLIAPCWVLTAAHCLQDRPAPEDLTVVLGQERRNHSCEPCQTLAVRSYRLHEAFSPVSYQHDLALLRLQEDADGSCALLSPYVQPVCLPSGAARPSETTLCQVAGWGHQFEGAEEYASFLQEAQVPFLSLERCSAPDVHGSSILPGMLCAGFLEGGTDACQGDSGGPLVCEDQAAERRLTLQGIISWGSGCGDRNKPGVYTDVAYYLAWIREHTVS
Chain of FXIa (human) (P03951 388-625 limits assumed): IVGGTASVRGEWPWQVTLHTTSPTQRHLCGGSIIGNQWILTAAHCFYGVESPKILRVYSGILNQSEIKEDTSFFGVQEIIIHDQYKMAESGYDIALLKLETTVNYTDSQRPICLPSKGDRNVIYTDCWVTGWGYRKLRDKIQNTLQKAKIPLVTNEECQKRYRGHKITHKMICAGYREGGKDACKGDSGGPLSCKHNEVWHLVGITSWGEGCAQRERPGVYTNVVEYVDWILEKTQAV
Chain of FXIa (human) (P03951 19-387 partner limits assumed): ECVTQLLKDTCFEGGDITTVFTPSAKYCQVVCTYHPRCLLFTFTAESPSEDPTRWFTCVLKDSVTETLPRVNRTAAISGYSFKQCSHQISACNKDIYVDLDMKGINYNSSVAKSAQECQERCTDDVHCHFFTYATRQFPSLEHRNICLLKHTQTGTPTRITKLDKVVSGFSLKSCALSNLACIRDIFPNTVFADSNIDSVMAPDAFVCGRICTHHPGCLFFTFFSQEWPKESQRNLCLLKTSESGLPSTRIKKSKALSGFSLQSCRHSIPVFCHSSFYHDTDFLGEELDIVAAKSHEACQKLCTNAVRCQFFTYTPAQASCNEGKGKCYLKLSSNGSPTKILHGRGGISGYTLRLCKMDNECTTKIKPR
Chain of native FIXa (human) (P00740 227-461 limits assumed): as the sequence (P00740 227-461) above
Chain of native FIXa (human) (P00740 47-191 partner limits assumed): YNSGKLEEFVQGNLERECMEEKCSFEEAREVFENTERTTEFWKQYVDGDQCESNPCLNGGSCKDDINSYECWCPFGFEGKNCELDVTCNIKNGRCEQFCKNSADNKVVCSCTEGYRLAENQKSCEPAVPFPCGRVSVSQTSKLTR
Chain of FXa (bovine) (P00743 234-492 limits assumed): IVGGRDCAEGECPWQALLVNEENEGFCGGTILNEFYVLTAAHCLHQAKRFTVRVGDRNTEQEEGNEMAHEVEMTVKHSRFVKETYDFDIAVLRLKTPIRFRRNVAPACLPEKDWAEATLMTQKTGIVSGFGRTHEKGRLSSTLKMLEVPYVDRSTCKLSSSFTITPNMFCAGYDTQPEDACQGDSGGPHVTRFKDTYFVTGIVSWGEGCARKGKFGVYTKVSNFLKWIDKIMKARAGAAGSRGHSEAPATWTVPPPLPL
Chain of FXa (bovine) (P00743 41-180 partner limits assumed): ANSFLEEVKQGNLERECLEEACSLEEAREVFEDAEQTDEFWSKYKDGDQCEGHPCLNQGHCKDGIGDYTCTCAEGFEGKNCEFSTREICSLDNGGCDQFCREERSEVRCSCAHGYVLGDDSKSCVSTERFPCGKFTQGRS
Chain of plasma kallikrein (human) (P03952 391-638 limits assumed): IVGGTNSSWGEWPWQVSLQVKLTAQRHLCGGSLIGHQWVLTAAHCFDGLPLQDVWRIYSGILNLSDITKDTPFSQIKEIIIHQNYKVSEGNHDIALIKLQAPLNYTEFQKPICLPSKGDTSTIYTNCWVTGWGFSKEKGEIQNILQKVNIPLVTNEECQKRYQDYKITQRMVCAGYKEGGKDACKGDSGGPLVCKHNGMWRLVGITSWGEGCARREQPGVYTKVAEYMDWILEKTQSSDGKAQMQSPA
Chain of plasma kallikrein (human) (P03952 20-390 partner limits assumed): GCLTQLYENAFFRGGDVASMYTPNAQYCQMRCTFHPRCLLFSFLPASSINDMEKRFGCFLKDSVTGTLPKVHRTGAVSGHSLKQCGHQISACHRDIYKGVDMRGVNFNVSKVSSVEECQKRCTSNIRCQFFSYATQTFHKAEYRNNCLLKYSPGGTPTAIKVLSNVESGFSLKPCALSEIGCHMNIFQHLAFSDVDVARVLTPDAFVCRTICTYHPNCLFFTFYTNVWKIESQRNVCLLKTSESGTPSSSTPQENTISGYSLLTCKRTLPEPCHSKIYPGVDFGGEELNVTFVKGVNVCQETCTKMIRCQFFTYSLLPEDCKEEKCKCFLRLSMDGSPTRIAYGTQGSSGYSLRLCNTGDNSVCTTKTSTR

activation among plasma kallikrein, FXIIa, FXIa, FIXa, FXa and thrombin (in words) (native FIXa (human); 0-50% alcohol, MeSO2-D-HHT-Gly-Arg-pNA): only FIXa is activated | V/V0 (native FIXa (human); 8% additive): 3.40 | V/V0 (native FIXa (human); 16% additive): 5.46 | V/V0 (native FIXa (human); 25% additive): 5.96 | V/V0 (native FIXa (human); 33% additive): 4.82 | V/V0 (native FIXa (human); 41% additive): 1.69 | V/V0 (native FIXa (human); 50% additive): 1.17 | V/V0 (rFIXa (human) [1]; 8% additive): 2.09 | V/V0 (rFIXa (human) [1]; 16% additive): 2.50 | V/V0 (rFIXa (human) [1]; 33% additive): 1.01 | V/V0 (rFIXa (human) [1]; 41% additive): 0.70 | V/V0 (rFIXa (human) [1]; 50% additive): 0.58 | activation of plasma kallikrein (in words) [2]: slight activation | V/V0 (FXIIa (human); 8% alcohol): 0.904 | V/V0 (FXIIa (human); 16% alcohol): 0.579 | V/V0 (FXIIa (human); 25% alcohol): 0.187 | V/V0 (FXIIa (human); 33% alcohol): 0.051 | V/V0 (FXIIa (human); 41% alcohol): 0.009 | V/V0 (FXIIa (human); 50% alcohol): 0 | V/V0 (FXIa (human); 8% alcohol): 1.08 | V/V0 (FXIa (human); 16% alcohol): 0.845 | V/V0 (FXIa (human); 25% alcohol): 0.657 | V/V0 (FXIa (human); 33% alcohol): 0.469 | V/V0 (FXIa (human); 41% alcohol): 0.353 | V/V0 (FXIa (human); 50% alcohol): 0.258 | V/V0 (FXa (bovine); 8% alcohol): 0.899 | V/V0 (FXa (bovine); 16% alcohol): 0.752 | V/V0 (FXa (bovine); 25% alcohol): 0.510 | V/V0 (FXa (bovine); 41% alcohol): 0.203 | V/V0 (FXa (bovine); 50% alcohol): 0.086 | V/V0 (thrombin (bovine); 8% alcohol): 0.846 | V/V0 (thrombin (bovine); 16% alcohol): 0.685 | V/V0 (thrombin (bovine); 25% alcohol): 0.507 | V/V0 (thrombin (bovine); 33% alcohol): 0.343 | V/V0 (thrombin (bovine); 41% alcohol): 0.184 | V/V0 (thrombin (bovine); 50% alcohol): 0.087 | V/V0 (rFIXa (human) [3]; 8% additive, MOC-D-Nle-Gly-Arg-pNA 0.82 mmol/l, 0.48 μmol/l rFIXa): 3.63 | V/V0 (rFIXa (human) [3]; 8% additive, MeSO2-D-CHA-Gly-Arg-pNA 1.02 mmol/l, 0.48 μmol/l rFIXa): 3.30 | V/V0 (rFIXa (human) [3]; 8% additive, MeSO2-D-CHG-Gly-Arg-pNA 1.02 mmol/l, […] rFIXa): 3.33 | V/V0 (rFIXa (human) [3]; 8% additive, MeSO2-D-HHT-Gly-Arg-pNA 1.02 mmol/l, 0.48 μmol/l rFIXa): 2.99 | V/V0 (rFIXa (human) [3]; 16% additive, MOC-D-Nle-Gly-Arg-pNA 0.82 mmol/l, 0.48 μmol/l rFIXa): 7.28 | V/V0 (rFIXa (human) [3]; 16% additive, MeSO2-D-CHA-Gly-Arg-pNA 1.02 mmol/l, 0.48 μmol/l rFIXa): 5.40 | V/V0 (rFIXa (human) [3]; 16% additive, MeSO2-D-CHG-Gly-Arg-pNA 1.02 mmol/l, […] rFIXa): 6.02 | V/V0 (rFIXa (human) [3]; 16% additive, MeSO2-D-HHT-Gly-Arg-pNA 1.02 mmol/l, 0.48 μmol/l rFIXa): 5.52 | V/V0 (rFIXa (human) [3]; 25% additive, MOC-D-Nle-Gly-Arg-pNA 0.82 mmol/l, 0.48 μmol/l rFIXa): 9.95 | V/V0 (rFIXa (human) [3]; 25% additive, MeSO2-D-CHA-Gly-Arg-pNA 1.02 mmol/l, 0.48 μmol/l rFIXa): 5.38 | V/V0 (rFIXa (human) [3]; 25% additive, MeSO2-D-CHG-Gly-Arg-pNA 1.02 mmol/l, […] rFIXa): 6.16 | V/V0 (rFIXa (human) [3]; 25% additive, MeSO2-D-HHT-Gly-Arg-pNA 1.02 mmol/l, 0.48 μmol/l rFIXa): 5.57 | V/V0 (rFIXa (human) [3]; 33% additive, MOC-D-Nle-Gly-Arg-pNA 0.82 mmol/l, 0.48 μmol/l rFIXa): 7.51 | V/V0 (rFIXa (human) [3]; 33% additive, MeSO2-D-CHA-Gly-Arg-pNA 1.02 mmol/l, 0.48 μmol/l rFIXa): 4.30 | V/V0 (rFIXa (human) [3]; 33% additive, MeSO2-D-CHG-Gly-Arg-pNA 1.02 mmol/l, […] rFIXa): 4.50 | V/V0 (rFIXa (human) [3]; 33% additive, MeSO2-D-HHT-Gly-Arg-pNA 1.02 mmol/l, 0.48 μmol/l rFIXa): 3.35 | V/V0 (rFIXa (human) [3]; 41% additive, MOC-D-Nle-Gly-Arg-pNA 0.82 mmol/l, 0.48 μmol/l rFIXa): 3.15 | V/V0 (rFIXa (human) [3]; 50% additive, MeSO2-D-CHA-Gly-Arg-pNA 1.02 mmol/l, 0.48 μmol/l rFIXa): 0.89 | V/V0 (rFIXa (human) [3]; 50% additive, MeSO2-D-CHG-Gly-Arg-pNA 1.02 mmol/l, […] rFIXa): 0.87 | V/V0 (rFIXa (human) [3]; 50% additive, MeSO2-D-HHT-Gly-Arg-pNA 1.02 mmol/l, 0.48 μmol/l rFIXa): 0.606 | V/V0 (rFIXa (human) [3]; 50% additive, MeSO2-D-HHT-Gly-Arg-pNA 1.02 mmol/l, 0.48 μmol/l rFIXa, listed as ethanol): 0.61 and 0.60 | stimulation of the activity of rFIXa (rFIXa (human) [3]; concentration range of 15-40%): 5-15 fold
Structure (SMILES): CCO [Ethanol]
